According to patent US20240344145A1, “PHARMACOGENOMICS SCORE TO MAKE DECISIONS ON THERAPY AUGMENTATION IN AML” (University of Florida Research Foundation, Incorporated, priority 2021, published 2024):

Test system: ara-C metabolic pathway genes
Test: Association of ara-C pathway SNP genotypes with MRD1, EFS and OS in AML02 (logistic regression and Cox models; also within LDAC and HDAC arms)
Parameters: species or system human
Settings: within arm of AML02
Text: Genomic DNA from patients enrolled in the multi-site St. Jude AML02 trial was genotyped for 155 SNPs in 16 genes of relevance to ara-C pharmacology using sequenom iPlex platform that uses MALDI-TOF based chemistry at University of Minnesota, Biomedical Genomics Center. SNPs were selected based on previously reported studies. For SNPs lacking literature on genetic variation, SNPs were selected to capture LD blocks (European and African ancestry) on a gene. Of 155 SNPs, 1 SNP was excluded due to low call rate (<90%), 47 SNPs were excluded due to minimum allele frequency of less than 5%, 11 SNPs were excluded due to high LD (r^2>0.9) with other SNPs; two SNPs were excluded because of deviation from Hardy-Weinberg equilibrium. Genotype for the COG-AAML0531 cohort for the selected SNPs was obtained using sequenom platform or TaqMan genotyping assays, and for a few SNPs was extracted from the data available on Illumina 2.5 Omni array. Genotype calls from multiple platforms were confirmed across multiple samples randomly collected from the cohort.
SNP genotype groups in three different modes of inheritance (additive, dominant, and recessive) were tested for association with MRD1 using logistic regression models. Odds ratio (OR) and 95% confidence interval (CI) were calculated for each test. SNPs with association P-value<0.05 were considered significant. Cox-proportional hazard models were used to evaluate association of genotype groups with EFS or OS. Hazard ratio (HR) and 95% CI were calculated for each test. p-value<0.05 was considered statistically significant. Given initial risk group assignments are well-established prognostic factors associated with outcome, outcome association analysis of SNPs with and without adjusting for risk group was also performed to identify SNPs that are associated with outcome independent of risk group.
SNPs with p<0.15 in risk-adjusted univariate evaluation with clinical endpoints (MRD1, EFS, and OS) were tested for all possible combinations with a maximum of three SNPs per model in multivariable logistic regression models for association with MRD1 and Cox-proportional hazard models for association with EFS and OS. Analysis for up to 3 SNP combinations was restricted due to computational challenges as increasing the maximum number of SNPs per model drastically increases the number of models as 1000 permutations were run for each model. Models were ordered according to their Bayesian Information Criterion (BIC) and weight in favor of each model. One thousand permutation tests were performed for each model to determine statistical significance. The six unique SNPs from the most significant models for EFS and MRD1 were included in the development of the ACS10 score as described in the results section.
The multicenter AML02 clinical trial randomly assigned subjects to receive low dose ara-C (LDAC: 100 mg/m^2; n=91 patients) or high dose ara-C(HDAC: 3 g/m^2; n=75 patients) in combination with daunorubicin and etoposide as the first course of chemotherapy as described above in patient cohort section. Thus, the association of SNPs with outcome within each arm separately was also explored (Table 5).

[1] = rs4742 (DCTD, WT T, VAR C), MOI R
[2] = rs5841 (NME4, WT C, VAR T), MOI D
[3] = rs324148 (SLC29A1, WT C, VAR T), MOI A
[4] = rs407983 (NME4, WT G, VAR C), MOI A
[5] = rs507964 (SLC29A1, WT C, VAR A), MOI R
[6] = rs580032 (CDA, WT T, VAR G), MOI D
[7] = rs602950 (CDA, WT T, VAR C), MOI A
[8] = rs747199 (SLC29A1, WT C, VAR G), MOI D
[9] = rs818196 (CDA, WT G, VAR C), MOI D
[10] = rs1048977 (CDA, WT C, VAR T), MOI D
[11] = rs1138729 (RRM2, WT A, VAR G), MOI D
[12] = rs2072671 (CDA, WT A, VAR C), MOI A
[13] = rs2396243 (SLC29A1, WT G, VAR A), MOI D
[14] = rs3088062 (CMPK1, WT T, VAR C), MOI A
[15] = rs3743162 (SLC28A1, WT C, VAR T), MOI D
[16] = rs3829540 (NME3, WT G, VAR A), MOI D
[17] = rs3925058 (CMPK1, WT T, VAR C), MOI D
[18] = rs4247411 (SLC28A1, WT C, VAR T), MOI D
[19] = rs4271567 (SLC28A1, WT T, VAR A), MOI R
[20] = rs4643786 (DCK, WT T, VAR C), MOI R

Nc1ccn([C@@H]2O[C@H](CO)[C@@H](O)[C@@H]2O)c(=O)n1 [LDAC, cytarabine] was tested, and the “EFS HR (95% CI)” value [1] was 1.49 (0.93-2.4), the “MRD1 OR (95% CI)” value [1] was 1.19 (0.57-2.46) and the “OS HR (95% CI)” value [1] was 1.96 (1.2-3.21). For the same compound, the “EFS HR (95% CI)” value [2] was 0.94 (0.68-1.31), the “MRD1 OR (95% CI)” value [2] was 0.7 (0.45-1.08) and the “OS HR (95% CI)” value [2] was 0.86 (0.58-1.27). The “EFS HR (95% CI)” value [3] was 1.35 (0.85-2.13), the “MRD1 OR (95% CI)” value [3] was 0.37 (0.17-0.78) and the “OS HR (95% CI)” value [3] was 1.14 (0.64-2.04). The “EFS HR (95% CI)” value [4] was 1.36 (0.88-2.09), the “MRD1 OR (95% CI)” value [4] was 0.92 (0.53-1.59) and the “OS HR (95% CI)” value [4] was 1.73 (1-2.98). For the same compound, the “EFS HR (95% CI)” value [5] was 1.54 (1.04-2.29), the “MRD1 OR (95% CI)” value [5] was 1.41 (0.76-2.62) and the “OS HR (95% CI)” value [5] was 1.1 (0.64-1.88). The “EFS HR (95% CI)” value [6] was 0.86 (0.51-1.44), the “MRD1 OR (95% CI)” value [6] was 1.16 (0.63-2.13) and the “OS HR (95% CI)” value [6] was 1.12 (0.65-1.9). The “EFS HR (95% CI)” value [7] was 0.56 (0.33-0.96), the “MRD1 OR (95% CI)” value [7] was 0.57 (0.3-1.08) and the “OS HR (95% CI)” value [7] was 0.68 (0.36-1.26). The “EFS HR (95% CI)” value [8] was 0.88 (0.61-1.28), the “MRD1 OR (95% CI)” value [8] was 1.18 (0.75-1.88) and the “OS HR (95% CI)” value [8] was 0.55 (0.3-1). The “EFS HR (95% CI)” value [9] was 1.18 (0.85-1.64), the “MRD1 OR (95% CI)” value [9] was 1.28 (0.82-2) and the “OS HR (95% CI)” value [9] was 1.09 (0.73-1.62). For the same compound, the “EFS HR (95% CI)” value [10] was 1.48 (1.06-2.08), the “MRD1 OR (95% CI)” value [10] was 1.21 (0.79-1.85) and the “OS HR (95% CI)” value [10] was 1.14 (0.77-1.69). For the same compound, the “EFS HR (95% CI)” value [11] was 1.55 (1.11-2.18), the “MRD1 OR (95% CI)” value [11] was 1.19 (0.73-1.94) and the “OS HR (95% CI)” value [11] was 1.41 (0.93-2.14). The “EFS HR (95% CI)” value [12] was 0.58 (0.35-0.95), the “MRD1 OR (95% CI)” value [12] was 0.57 (0.31-1.04) and the “OS HR (95% CI)” value [12] was 0.68 (0.38-1.23). The “EFS HR (95% CI)” value [13] was 1.56 (1.12-2.16), the “MRD1 OR (95% CI)” value [13] was 0.92 (0.59-1.43) and the “OS HR (95% CI)” value [13] was 1.59 (1.07-2.36). The “EFS HR (95% CI)” value [14] was 1.66 (0.99-2.8), the “MRD1 OR (95% CI)” value [14] was 2.37 (1.06-5.28) and the “OS HR (95% CI)” value [14] was 1.63 (0.89-3.01). The “EFS HR (95% CI)” value [15] was 0.82 (0.56-1.19), the “MRD1 OR (95% CI)” value [15] was 0.77 (0.48-1.23) and the “OS HR (95% CI)” value [15] was 1.07 (0.71-1.64). The “EFS HR (95% CI)” value [16] was 1.23 (0.89-1.71), the “MRD1 OR (95% CI)” value [16] was 1.15 (0.73-1.8) and the “OS HR (95% CI)” value [16] was 1.22 (0.82-1.82). For the same compound, the “EFS HR (95% CI)” value [17] was 0.7 (0.51-0.97), the “MRD1 OR (95% CI)” value [17] was 0.6 (0.38-0.95) and the “OS HR (95% CI)” value [17] was 0.76 (0.51-1.13). The “EFS HR (95% CI)” value [18] was 1.05 (0.73-1.51), the “MRD1 OR (95% CI)” value [18] was 0.94 (0.59-1.51) and the “OS HR (95% CI)” value [18] was 1.03 (0.67-1.59). The “EFS HR (95% CI)” value [19] was 1 (0.69-1.46), the “MRD1 OR (95% CI)” value [19] was 0.76 (0.46-1.28) and the “OS HR (95% CI)” value [19] was 1.12 (0.72-1.74). For the same compound, the “EFS HR (95% CI)” value [20] was 2.15 (1.28-3.64), the “MRD1 OR (95% CI)” value [20] was 2.34 (0.76-7.15) and the “OS HR (95% CI)” value [20] was 1.7 (0.92-3.11).
